Data on four compounds can be found in patent publication US12371441B2, “Siderophore cephalosporin conjugates and uses thereof” (ARIVA MED GMBH, priority 2019, dated 2025).

In brackets after ≈: the same amount, converted by molar mass. Read-outs that look alike come from different tables or passages of the source. A value given as a limit tells only on which side of the number the result lay.

As a reminder, the MIC is the least concentration at which growth counts as inhibited. As a reminder, the IC50 is the point on the concentration scale where inhibition reaches its midpoint. A higher IC50 goes with a need for much substance.

In experiment [1] the test system is Acinetobacter baumannii ATCC 15473. The experiment can be described thus: MIC by standard broth microdilution (CLSI), Acinetobacter baumannii. Type of experiment: cell-based. Here is the method: (§1) The in vitro activity against bacteria was determined by standard broth microdilution according to the Clinical and Laboratory Standards Institute CLSI document (Performance Standards for Antimicrobial Susceptibility Testing) M100Ed29E (2019) and (Methods for Dilution Antimicrobial Susceptibility Test for Bacteria That Grow Aerobically) M07Ed11 (2018). The data were obtained using cation-adjusted Mueller Hinton broth medium (CAMHB), and additionally iron-depleted CAMHB medium (ID-CAMHB) for compounds with iron-chelating activity.

A short description of experiment [2]: Chromeazurol assay (iron-chelating property). The following applies: absorbance at 630 nm. Type of experiment: physicochemical. The method, then: The iron-chelating property was determined by the chromeazurol assay according to Schwyn B., et al, Universal Chemical Assay for the Detection and Determination of Siderophores, 1987. Analytical Biochemistry 160: 47-56. The assay uses the affinity of chrome azurol S/iron(III)/hexadecyltrimethylamimonium bromide for iron(III). When a strong chelator removes the iron from this dye, its color turns from blue to orange and the absorbance measured at 630 nm is indicative for the chelating properties of a siderophore.

In experiment [3] the test system is Pseudomonas aeruginosa ATCC 27853. The experiment in a line: MIC by standard broth microdilution (CLSI), Pseudomonas aeruginosa. Type of experiment: cell-based. Here is the method: as §1
On the technique in general: Broth dilution looks for growth in wells or tubes with falling amounts of substance.

Experiment [4] concerns Burkholderia cepacia CF and non-CF isolates, n = 5. The experiment can be described thus: MIC by standard broth microdilution (CLSI), Burkholderia cepacia isolates. Type of experiment: cell-based. The method, then:
as §1

The subject of experiment [5] is Escherichia coli ATCC 25922. The experiment can be described thus: MIC by standard broth microdilution (CLSI), Escherichia coli. Type of experiment: cell-based. The method, then:
as §1

In experiment [6] the test system is Klebsiella pneumoniae ATCC 43816. The experiment in a line: MIC by standard broth microdilution (CLSI), Klebsiella pneumoniae. Type of experiment: cell-based. Here is the method: as §1
The mark [7] stands for this setting: ATCC15473, AB ATCC 15473, cation-adjusted Mueller Hinton broth (CAMHB), read-out: MIC in CAMHB medium.
Where [8] appears, read: ATCC27853, PA ATCC 27853, cation-adjusted Mueller Hinton broth (CAMHB), read-out: MIC in CAMHB medium.
[9] abbreviates: ATCC27853, PA ATCC 27853, iron-depleted CAMHB (value in parentheses), read-out: MIC in ID-CAMHB medium.
Where [10] appears, read: ATCC25922, EC ATCC 25922, cation-adjusted Mueller Hinton broth (CAMHB), read-out: MIC in CAMHB medium.
Setting [11] is: ATCC43816, KP ATCC 43816, cation-adjusted Mueller Hinton broth (CAMHB), read-out: MIC in CAMHB medium.
[12] abbreviates: ATCC15473, AB ATCC 15473, iron-depleted CAMHB (value in parentheses), read-out: MIC in ID-CAMHB medium.
Where [13] appears, read: ATCC25922, EC ATCC 25922, iron-depleted CAMHB (value in parentheses), read-out: MIC in ID-CAMHB medium.
The mark [14] stands for this setting: ATCC43816, KP ATCC 43816, iron-depleted CAMHB (value in parentheses), read-out: MIC in ID-CAMHB medium.

Regarding `CC(C)(O/N=C(\C(=O)N[C@@H]1C(=O)N2C(C(=O)O)=C(C=NOCc3cc(=O)c(O)cn3O)CS[C@H]12)c1nsc(N)n1)C(=O)O` [Example 2, (6R,7R)-7-[[(2Z)-2-(5-amino-1,2,4-thiadiazol-3-yl)-2-(1-carboxy-1-methyl-ethoxy)imino-acetyl]amino]-3-[(1,5-dihydroxy-4-oxo-2-pyridyl)methoxyiminomethyl]-8-oxo-5-thia-1-azabicyclo[4.2.0]oct-2-ene-2-carboxylic acid], the MIC in experiment [1] (setting [7]) was 1 µg/mL (≈ 1.57 µM); in experiment [3] (setting [8]), 0.5 µg/mL (≈ 0.783 µM); in experiment [3] (setting [9]) it was 0.12 µg/mL (≈ 0.188 µM); in experiment [4] (read-out: MIC in CAMHB medium), 0.03 to 0.5 µg/mL (≈ 0.047 to 0.783 µM); in experiment [4] (read-out: MIC in ID-CAMHB medium), 0.03 to 0.5 µg/mL (≈ 0.047 to 0.783 µM); in experiment [5] (setting [10]) it was 0.06 µg/mL (≈ 0.094 µM). Also, the MIC in experiment [6] (setting [11]) was 0.06 µg/mL (≈ 0.094 µM). The same compound had an IC50 in experiment [2] of 9.56 µM.
Consider `CC(C)(O/N=C(\C(=O)NC1C(=O)N2C(C(=O)O)=C(C=NO[C@H]3CCN(C(=O)c4ccc(O)c(O)c4Cl)C3)CSC12)c1csc(N)n1)C(=O)O` (stereo partly drawn) [Example 8, 7-[[(2Z)-2-(2-aminothiazol-4-yl)-2-(1-carboxy-1-methyl-ethoxy)imino-acetyl]amino]-3-{[(3S)-1-(2-chloro-3,4-dihydroxy-benzoyl)pyrrolidine-3-yl]oxyiminomethyl}-8-oxo-5-thia-1-azabicyclo[4.2.0]oct-2-ene-2-carboxylic acid], for which the MIC in experiment [1] (setting [7]) amounted to 0.5 µg/mL (≈ 0.677 µM); in experiment [1] (setting [12]) it was 0.5 µg/mL (≈ 0.677 µM); in experiment [3] (setting [8]), 1 µg/mL (≈ 1.35 µM); in experiment [3] (setting [9]) it was 0.25 µg/mL (≈ 0.339 µM); in experiment [5] (setting [10]) it was 0.12 µg/mL (≈ 0.163 µM); in experiment [5] (setting [13]), 0.12 µg/mL (≈ 0.163 µM). Further, the MIC in experiment [6] (setting [11]) and in experiment [6] (setting [14]) was less than 0.03 µg/mL in each case. Moreover, the IC50 in experiment [2] stood at 5.64 µM.
Take `Nc1nc(/C(=N/OCF)C(=O)NC2C(=O)N3C(C(=O)O)=C(C=NOCCNC(=O)c4ccc(O)c(O)c4Cl)CSC23)ns1` (centres unmarked) [Example 6, 7-[[(2Z)-2-(5-amino-1,2,4-thiadiazol-3-yl)-2-(fluoromethoxyimino)-acetyl]amino]-3-[2-[(2-chloro-3,4-dihydroxy-benzoyl)amino]ethoxyiminomethyl]-8-oxo-5-thia-1-azabicyclo[4.2.0]oct-2-ene-2-carboxylic acid]: the MIC in experiment [1] (setting [7]) is 4 µg/mL (≈ 6.07 µM); in experiment [1] (setting [12]) it was 4 µg/mL (≈ 6.07 µM); in experiment [3] (setting [8]), 4 µg/mL (≈ 6.07 µM); in experiment [3] (setting [9]) it was 1 µg/mL (≈ 1.52 µM); in experiment [5] (setting [10]), 0.25 µg/mL (≈ 0.379 µM); in experiment [5] (setting [13]) it was 0.12 µg/mL (≈ 0.182 µM). Further, the MIC in experiment [6] (setting [11]) and in experiment [6] (setting [14]) was no more than 0.03 µg/mL throughout. In experiment [2], this compound returned an IC50 of 6.46 µM.
Turning to `Nc1nc(/C(=N/OCF)C(=O)N[C@@H]2C(=O)N3C(C(=O)O)=C(C=NOCc4cc(=O)c(O)cn4O)CS[C@H]23)ns1` [Example 3, (6R,7R)-7-[[(2Z)-2-(5-amino-1,2,4-thiadiazol-3-yl)-2-(fluoromethoxyimino)acetyl]amino]-3-[(1,5-dihydroxy-4-oxo-2-pyridyl)methoxyiminomethyl]-8-oxo-5-thia-1-azabicyclo[4.2.0]oct-2-ene-2-carboxylic acid], the MIC in experiment [1] (setting [7]) is 8 µg/mL (≈ 13.7 µM); in experiment [1] (setting [12]), 16 µg/mL (≈ 27.4 µM); in experiment [3] (setting [8]) it was 4 µg/mL (≈ 6.84 µM); in experiment [3] (setting [9]), 0.5 µg/mL (≈ 0.855 µM); in experiment [5] (setting [10]), no more than 0.03 µg/mL; in experiment [5] (setting [13]), no more than 0.03 µg/mL. Moreover, the MIC in experiment [6] (setting [11]) and in experiment [6] (setting [14]) was no more than 0.03 µg/mL each time. Moreover, the IC50 in experiment [2] came to 7.96 µM.
